Experimental data reported in patent US20240016795A1, “BROMODOMAIN INHIBITORS FOR ANDROGEN RECEPTOR-DRIVEN CANCERS” (FORMA Therapeutics, Inc., priority 2020, published 2024).
pIC50: −log10 of the molar value.

Tests used:
[1] = test system: AR+ prostate cancer cell lines (LnCaP, VCaP, 22Rv1); assay: 10-day proliferation assay, all AR+ prostate cancer cell lines; format: cell-based; conditions: 240 h; 10-day assay; read-out: growth inhibitory effect (IC50), all AR+ cell lines
Protocol: (§1) Two AR-negative prostate cancer cell lines DU145 and PC-3 were also evaluated.
(§2) Prostate cell lines were obtained from ATCC or DSMZ and cultured according to the distributor's recommendations. Prostate cancer cells were plated and incubated overnight. […] Cell viability was assessed using a CellTiter-Glo® assay (Promega) after 10 days drug exposure. The growth inhibitory effect was assessed by the concentration inhibiting growth by 50% using a nonlinear regression equation and a variable slope (Graphpad Prism).

TMPRSS2 [2] = assay: qPCR gene expression in VCaP, TMPRSS2; format: cell-based; conditions: Homo sapiens, 24 h
Protocol: (§3) RNA was extracted using Qiacube RNAeasy Mini (Qiagen). For all genes tested, the qPCR reactions were carried out in triplicate with 250 ng RNA per reaction and Taqman® primer-probes. GAPDH was used as a housekeeping gene.

SORD = assay: qPCR gene expression in VCaP, SORD; format: cell-based; conditions: Homo sapiens, 24 h
Protocol: as §3

[3] = test system: patient-derived xenograft (PDX) model of AR+ prostate cancer sensitive to enzalutamide; assay: Patient-derived xenograft of prostate cancer sensitive to enzalutamide; format: in vivo, NOG mice; conditions: Compound 1 40 mg/kg/day, enzalutamide 20 mg/kg/day
Protocol: The antitumor activity was determined based by tumor volume during the course of the study.
Male NOG mice (6-8 weeks of age) were implanted with tumor fragments. When tumors reached an average tumor volume of 150-200 mm^3 animals were randomized into different cohort groups and dosing initiated on the same day (Day 0). Animals were weighed twice weekly.
[…] 11.

PC-3 = assay: 10-day prostate cancer cell proliferation assay, PC-3; format: cell-based; conditions: Homo sapiens, PC-3, 240 h; 10 days exposure; AR negative
Protocol: as §2

AR = AR protein level by western blot in prostate cancer cells; format: cell-based
LNCaP = assay: 10-day prostate cancer cell proliferation assay, LNCaP; format: cell-based; conditions: Homo sapiens, LNCaP, 240 h; 10 days exposure; T878A/WT, androgen-dependent
Protocol: as §2

AR target genes [4] = assay: Reduction of AR target genes in 22Rv1 cells; format: cell-based; conditions: Homo sapiens, 24 hr exposure
Protocol: as §3

[5] = test system: panel of 10 BRD representing the various branches of the bromodomain tree; assay: AlphaScreen panel of 10 bromodomains; format: binding
[6] = test system: human kinases and disease-relevant mutant variants; assay: KINOMEscan screen; format: binding
FKBP5 = assay: qPCR gene expression in 22Rv1, FKBP5; format: cell-based; conditions: Homo sapiens, 22Rv1, 24 h
Protocol: as §3

TMPRSS2 [7] = assay: qPCR gene expression in AR-v7+ prostate cancer cells, TMPRSS2; format: cell-based; conditions: 24 h
Protocol: AR-v7+ prostate cancer cells were exposed to compounds 1, 2, 3, or 4 for 24 h. RNA was extracted and gene expression was measured by qPCR using Taqman® primer-probes. GAPDH was used as a housekeeping gene.

TMPRSS2 [8] = assay: qPCR gene expression in 22Rv1, TMPRSS2; format: cell-based; conditions: Homo sapiens, 22Rv1, 24 h
Protocol: as §3

MYC [9] = assay: qPCR gene expression in VCaP, MYC; format: cell-based; conditions: Homo sapiens, 24 h
Protocol: as §3

XBP1 = assay: Taqman gene expression in AR-positive breast cancer cells, XBP1; format: cell-based; conditions: 24 hours, read-out: IC50, XBP1 mRNA
Protocol: (§4) AR-positive breast cancer cells were exposed to increasing concentrations of compounds for 24 hours. RNA was extracted and gene expression measured using Taqman® assays for TMPRSS2 and XBP1.

[10] = test system: AR+ triple negative breast cancer xenograft; assay: AR+ triple negative breast cancer cell line derived xenograft; format: in vivo, NOD SCID mice; conditions: 50 mg/kg orally daily
Protocol: Briefly, AR-positive breast cancer tumor cells (1×107) were implanted subcutaneously in the flank of 6-8-week-old NOD SCID mice. Mice were randomized, and treatment started when mean tumor size reached 160 mm^3 (8 mice per cohort). […] Tumor volume (TV) was measured twice weekly by caliper and the tumor volume (mm^3) calculated as follows: TV=a×b×b/2, where “a” and “b” are long and short diameters of a tumor, respectively.
The average body weight loss was 3.7%.
The study was completed using methods analogous to those described in Example 7, above.
Three dosing cycles were completed for mice within these cohorts.
Mice in the 30 mg/kg cohort were dosed daily for three weeks.
Tumor volume was assessed at Day 14, Day 17, Day 21, Day 24, and Day 27 of the study.

MFM223 = assay: 10-day CellTiter-Glo antiproliferative assay, MFM223; format: cell-based; conditions: Homo sapiens, MFM-223, 240 h, 10-day exposure, AR Low, ER −, Her2 −
Protocol: Breast cell lines were cultured according to the distributor's recommendations. The following day, cells were exposed to compounds up to 10 days. Cell viability was assessed using a CellTiter-Glo® assay (Promega) at the end of the incubation period. The growth inhibitory effect was assessed by the concentration inhibiting growth by 50% using a nonlinear regression equation and a variable slope (Graphpad Prism). The mRNA expression levels for the androgen receptor (HUGO: AR) was determined from the DepMap Portal database (release 19Q2).

KLK3 (PSA) [11] = assay: qPCR gene expression in 22Rv1, KLK3 (PSA); format: cell-based; conditions: Homo sapiens, 22Rv1, 24 h
Protocol: as §3

AR-v7 = AR-v7 protein level by western blot in prostate cancer cells; format: cell-based
KLK3 (PSA) [12] = assay: qPCR gene expression in VCaP, KLK3 (PSA); format: cell-based; conditions: Homo sapiens, 24 h
Protocol: as §3

AR target genes [13] = assay: Reduction of AR target genes in VCaP cells; format: cell-based; conditions: Homo sapiens, 24 hr exposure
Protocol: as §3

SPDEF [14] = assay: qPCR gene expression in 22Rv1, SPDEF; format: cell-based; conditions: Homo sapiens, 22Rv1, 24 h
Protocol: as §3

SPDEF [15] = assay: qPCR gene expression in VCaP, SPDEF; format: cell-based; conditions: Homo sapiens, 24 h
Protocol: as §3

TMPRSS2 [16] = assay: Taqman gene expression in AR-positive breast cancer cells, TMPRSS2; format: cell-based; conditions: 24 hours, read-out: IC50, TMPRSS2 mRNA
Protocol: as §4

MYC [17] = assay: qPCR gene expression in 22Rv1, MYC; format: cell-based; conditions: Homo sapiens, 22Rv1, 24 h
Protocol: as §3

[18] = test system: AR-negative prostate cancer cell lines DU145 and PC-3; assay: 10-day proliferation assay, AR-negative prostate cancer cell lines; format: cell-based; conditions: 10-day assay
Protocol: as §1, §2

**Q.** COC(=O)N1c2ccc3c(nc([C@H](O)c4cc(F)ccc4OC)n3[C@@H]3CCC[C@@H](C(=O)O)C3)c2CC[C@@H]1C [Compound 1, (1R,3R)-3-[(7S)-2-[(R)-(5-fluoro-2-methoxyphenyl)(hydroxy)methyl]-6-(methoxycarbonyl)-7-methyl-3H,6H,7H,8H,9H-imidazo[4,5-f]quinolin-3-yl]cyclohexane-1-carboxylic acid] was tested. Which pIC50 [1] did it give?
**A.** 5.82 to 6.30

**Q.** What about the IC50 (TMPRSS2 [2]) of the same compound?
**A.** 0.01 to 0.05 µM

**Q.** What about the IC50 (SORD) of the same compound?
**A.** > 0.1 µM

**Q.** What about the “AR target gene SPDEF expression in tumor” value ([3]; four days) of the same compound?
**A.** reduced

**Q.** What about the H3K27Ac in tumor ([3]; four days) of the same compound?
**A.** reduction of H3K27Ac

**Q.** And the “TGI at the end of study” value ([3]; start of dosing to day 59)?
**A.** comparable

**Q.** What about the pIC50 (PC-3) of the same compound?
**A.** < 6.00

**Q.** What about the “return of AR to baseline level following removal of compound” value (AR; 22Rv1, after a 24 hr exposure) of the same compound?
**A.** ≤ 24 h

**Q.** And the AR protein level (AR; androgen-independent and androgen-dependent prostate cancer cell lines, western blot)?
**A.** dose dependent reduction

**Q.** And the pIC50 (LNCaP)?
**A.** < 6.00

**Q.** And the pIC50 (AR target genes [4])?
**A.** > 6.30

**Q.** And the “activity against panel of bromodomains” value [5]?
**A.** inactive against 8

**Q.** And the pIC50 ([5]; read-out: IC50 in multiple assays of the panel of 10 bromodomains)?
**A.** < 5.00

**Q.** What about the “binding affinity for kinases” value [6] of the same compound?
**A.** no to low binding affinity

**Q.** And the IC50 (FKBP5)?
**A.** > 0.1 µM

**Q.** What about the pIC50 (TMPRSS2 [7]) of the same compound?
**A.** > 8.00

**Q.** And the IC50 (TMPRSS2 [8])?
**A.** < 0.01 µM

**Q.** What about the IC50 (MYC [9]) of the same compound?
**A.** 0.05 to 0.1 µM

**Q.** What about the pIC50 (XBP1) of the same compound?
**A.** > 7.00

**Q.** What about the “average body weight loss” value [10] of the same compound?
**A.** 3.7%

**Q.** And the “tumor growth inhibition (TGI)” value ([10]; end of treatment, versus vehicle control)?
**A.** 104%

**Q.** What about the IC50 (MFM223) of the same compound?
**A.** > 1 µM

**Q.** What about the IC50 (KLK3 (PSA) [11]) of the same compound?
**A.** 0.01 to 0.05 µM

**Q.** What about the “AR-v7 reduction maintained after removal of compound” value (AR-v7; 22Rv1, after a 24 hr exposure) of the same compound?
**A.** 72 h

**Q.** And the AR-v7 protein level (AR-v7; androgen-independent (AR-v7+) prostate cancer cells, western blot)?
**A.** reduced

**Q.** What about the IC50 (KLK3 (PSA) [12]) of the same compound?
**A.** 0.01 to 0.05 µM

**Q.** And the pIC50 (AR target genes [13])?
**A.** > 6.30

**Q.** What about the IC50 (SPDEF [14]) of the same compound?
**A.** > 0.1 µM

**Q.** What about the IC50 (SPDEF [15]) of the same compound?
**A.** > 0.1 µM

**Q.** What about the pIC50 (TMPRSS2 [16]) of the same compound?
**A.** > 7.00

**Q.** What about the IC50 (MYC [17]) of the same compound?
**A.** > 0.1 µM

**Q.** What about the “antiproliferative effect, AR-negative cell lines” value [18] of the same compound?
**A.** inactive
